Source: publication PMC11212260, “Next-generation neuropeptide Y receptor small-molecule agonists inhibit mosquito-biting behavior” (Parasites & Vectors, 2024)
Several values for one entry are separate records, joined by “and”; a condition that tells them apart may be missing. Identical values can stand only once.

Legend:
[1] = system: Aedes aegypti (Orlando strain) females; assay: Biting assay (mouse-in-cage); type: in vivo; parameters: key to Difference between medians: Actual (vs. saline) / Difference between medians: Hodges-Lehmann (vs. saline): differences in percent biting (blood-fed/total females, %); conditions: for Percentage of females that freshly blood-fed on an anesthetized mouse: fed 1 μM 48 h prior, 15 min exposure, individual replicates; for effect on biting / blood-feeding from a live host (in words): fed at a dose of 1 μM
Method: Groups of 60–150 females were placed in bucket cages with a diameter of 21.6 cm and height of 16.5 cm (VWR) and fasted with access to water for 24 h prior to feeding. Meals were delivered to females via Glytube membrane feeders as described previously. Meals consisted of 1.5 ml sheep blood (HemoStat Laboratories), saline (400 mM NaHCO3 + dih2O), or saline and test compound. Lyophilized compounds were stored at room temperature until use. High-concentration stocks (30 mM in 100% dimethyl sulfoxide [DMSO]) (Sigma-Aldrich) were stored at −20 °C and diluted in saline immediately prior to feeding. Once prepared, meals and glycerol heating elements were warmed in a 42 °C water bath for 15 min to provide warmth to attract mosquitos to feed. […] Females were allowed 15–20 min to feed to repletion. Abdominal engorgement was scored by eye and confirmed by weighing females to ensure full feeding (Data S1). […] Females were returned to their original cage with a diH2O wick for 48 h prior to behavioral testing. The lethality of each compound was measured by counting the number of dead females in each cage 24 h post-meal.
This assay was modified from. Females were fed and scored as described above. Forty-eight hours post-meal, females were anesthetized in a 4 °C cold room and aspirated into a petri dish (Thermo Fisher Biosciences) with a randomly assigned color powder (Slice of the Moon; Chameleon Colors) to mark their treatment group. Females were then individually removed from the color powder, placed inside a cage measuring 91 cm × 61 cm × 61 cm (BugDorm), and allowed 2–4 h to recover. Each experiment consisted of a cage with 12–20 females in each treatment group including environmental (non-fed and blood-fed) and vehicle (saline-fed) control groups. The experiment began once an anesthetized mouse was introduced to the center of the cage, and females were allowed 15 min to blood-feed. The mouse was then removed, and the cage was placed at 4 °C to anesthetize females for collection. Females were aspirated into a large glass petri dish (Pyrex) and scored under a dissection microscope (Nikon SMZ1500) for powder color and blood-feeding status. Females were scored as blood-fed if fresh blood was present in the abdomen. Percent biting was calculated as females freshly blood-fed/total females in each respective treatment group.

Ae. aegypti NPYLR7 = Ae. aegypti NPYLR7 (Aedes aegypti, UniProt U5N1H5); parameters: method as in PMID 30735632; conditions: previous work; read-out: EC50 in activating NPYLR7 in vitro; cited from earlier work
Ae. aegypti NPYLR7, sequence (U5N1H5 entry or part of it): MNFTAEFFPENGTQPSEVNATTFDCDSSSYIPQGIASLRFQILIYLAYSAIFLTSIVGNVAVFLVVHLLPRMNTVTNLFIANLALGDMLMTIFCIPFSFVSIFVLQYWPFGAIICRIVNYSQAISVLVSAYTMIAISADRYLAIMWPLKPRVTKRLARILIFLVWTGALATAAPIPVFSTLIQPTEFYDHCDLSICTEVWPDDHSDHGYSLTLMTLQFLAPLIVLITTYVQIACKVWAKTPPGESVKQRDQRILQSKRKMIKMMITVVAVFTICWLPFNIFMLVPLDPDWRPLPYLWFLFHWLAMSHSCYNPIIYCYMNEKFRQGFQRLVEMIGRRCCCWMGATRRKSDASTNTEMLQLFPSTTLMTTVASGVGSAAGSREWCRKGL

[2] = system: Aedes aegypti (Orlando strain) females; parameters: method as in PMID 30735632; conditions: previous work; cited from earlier work
[3] = system: Aedes aegypti (Orlando strain) females; assay: Glytube feeding: females feeding to repletion and weight per female (meal palatability); type: in vivo; conditions: Supplemental Figure 1 Panel A; compounds of Fig 3; individual replicate values
Method: Groups of 60–150 females were placed in bucket cages with a diameter of 21.6 cm and height of 16.5 cm (VWR) and fasted with access to water for 24 h prior to feeding. Meals were delivered to females via Glytube membrane feeders as described previously. Meals consisted of 1.5 ml sheep blood (HemoStat Laboratories), saline (400 mM NaHCO3 + dih2O), or saline and test compound. Lyophilized compounds were stored at room temperature until use. High-concentration stocks (30 mM in 100% dimethyl sulfoxide [DMSO]) (Sigma-Aldrich) were stored at −20 °C and diluted in saline immediately prior to feeding. Once prepared, meals and glycerol heating elements were warmed in a 42 °C water bath for 15 min to provide warmth to attract mosquitos to feed. ATP (1 mM final concentration) and test compounds (1 μM final concentration) were added prior to placing the meal on top of the mesh on the cage containing female mosquitos. Females were allowed 15–20 min to feed to repletion. Abdominal engorgement was scored by eye and confirmed by weighing females to ensure full feeding (Data S1). […] Females were returned to their original cage with a diH2O wick for 48 h prior to behavioral testing. The lethality of each compound was measured by counting the number of dead females in each cage 24 h post-meal.
Supplementary file 13071_2024_6347_MOESM1_ESM.png: Supplementary Material 1: Figure 1. […] (A) Percent of females feeding to repletion and (B) weight per female after feeding on the indicated meal used for testing in Miniport olfactometer experiments in Figure 3B. (C) Percent of females feeding to repletion and (D) weight per female after feeding on the indicated meal used for testing in live host assays in Figure 4. Data are shown as mean with standard deviation. n = 2–22 replicate cages, 60–150 females/cage. Females were weighed in groups of five to ensure reliable readings. Kruskal–Wallis with Dunn’s multiple comparisons to saline-fed group, ns P > 0.01, * P < 0.01, *** P < 0.0001. (PNG 321 KB)

| SMILES | Difference between medians: Actual (vs. saline) ([1]; fed 100 μM) | Difference between medians: Hodges-Lehmann (vs. saline) ([1]; fed 100 μM) | Median (percent freshly blood-fed) ([1]; fed 100 μM) | Significantly different (P < 0.05)? vs. saline ([1]; fed 100 μM) | effect on blood-feeding from a live host (in words) ([1]; fed at a dose of 100 μM) | EC50 (Ae. aegypti NPYLR7) [µM] | fed dose at which behaviorally active [2] [µM] | Difference between medians: Actual (vs. saline) ([1]; fed 1 μM) | Difference between medians: Hodges-Lehmann (vs. saline) ([1]; fed 1 μM) | Median (percent freshly blood-fed) ([1]; fed 1 μM) | Significantly different (P < 0.05)? vs. saline ([1]; fed 1 μM) | Percentage of females that freshly blood-fed on an anesthetized mouse ([1]; listed as TDI-04184) | effect on biting / blood-feeding from a live host (in words) [1] | % feeding (females feeding to repletion) [3] [%] | Percentage of females that freshly blood-fed on an anesthetized mouse ([1]; listed as TDI-04186) |
| --- | --- | --- | --- | --- | --- | --- | --- | --- | --- | --- | --- | --- | --- | --- | --- |
| COc1ccc2c(C)nc(NC(=N)N)nc2c1 [TDI-012631, reference compound] | -26 | -24.68 | 53.00, n=17% | Yes | inhibited blood-feeding | 19.6 | > 30 |  |  |  |  |  |  |  |  |
| CNc1nc(NC(=N)N)nc2cc(OCc3ccccc3)c(OC)cc12 [TDI-014184] |  |  |  |  |  |  |  | -27.4 | -24 | 47.00, n=11% | Yes | 65% and 81% and 47% and 10% and 44% and 86% and 33% and 56% and 35% | reduced biting behavior | 76.92 |  |
| Cc1nc(NC(=N)N)nc2cc(N3CCc4ccccc4C3)ccc12 [TDI-014186] |  |  |  |  |  |  |  | -18.25 | -17 | 54.25, n=9% | Yes |  | effectively reduced biting | 56.22 | 31% and 62% and 70% and 67% and 36% and 53% and 65% |
